The values that follow come from patent US20150190410A1, “USE OF CREATINE AND PHOSPHOCREATINE IN THE TREATMENT OF EPILEPSY AND ALCOHOL ADDICTION” (Dignity Health, priority 2012, published 2015).

Assay [1] concerns atypical absence epilepsy rodent models. Kind of assay: AY9944 atypical absence epilepsy rodent model: seizure number and seizure time under creatine. In kind it is in vivo, rat. The note with it: for Seizure # Between 13:00:00 to 15:00:00: twice daily injection of creatine at 30 mg/kg, individual epileptic animals. As for the experimental part: • Induced via administering the cholesterol inhibitor AY9944 during postnatal developing period P2 to P21. • Epileptic seizure is chronic, resembling all the symptoms of atypical absence epilepsy • Failure to show ictal immobility • Slow spike-wave discharges • Cognitive impairments • Counterintuitive with application of GABA Positive allosteric modulators and Agonists. • Greater seizure susceptibility in female than male.
11 epileptic animals were treated initially with saline to establish base line (day 0), then treated with twice daily injection of creatine at 30 mg/kg (days 1-5). […] Specifically, the inventors performed the following: • Day 0—Control (saline injection) • Injection of creatine between days 1-5—twice daily injection of 30 mg/kg of creatine • Day #2 (30 mg/kg creatine) • Day #5 (30 mg/kg creatine)

For assay [2] the test system is unchanged. Described as above. The assay is classed as in vivo, rat.
Assay [3] has as its system GABAA receptor expressing cells. In words: Co-application with ethanol on GABAA receptor expressing cells. The note with it: depends on concentration relative to ethanol. In kind it is cell-based. The text has this:
Thus, in one embodiment, creatine, phosphocreatine and their analogs can be used to prevent and/or provide protection against alcohol addiction.
Alcoholism is a serious problem both to the individual, the individual's family, and society. Currently there is no compound that can effectively prevent alcoholism. Alcohol (Ethanol) acts as a positive allosteric modulator of extrasynaptic GABAA receptors. […] Thus creatine, phosphocreatine and their analogs may be used to prevent and/or provide protection against alcohol addiction.

Assay [4] deals with extra-synaptic GABAA receptors. In words: Allosteric modulation of extra-synaptic GABAA receptors (expression cells; whole cell patch clamp). In kind it is cell-based. An excerpt: FIG. 3 depicts, in accordance with an embodiment herein, utilizing whole cell patch clamp on primary cultured neuron (rat cortex) to confirm creatine's effect on extra-synaptic GABAA receptors.
[5] abbreviates: Day 2 vs Day 0 saline control, 30 mg/kg twice daily, individual animals, 30 mg/kg.
Where [6] appears, read: Day 5 vs Day 0 saline control, 30 mg/kg twice daily, individual animals, 30 mg/kg.
The mark [7] stands for this setting: average of 11 animals, Day 2, 30 mg/kg twice daily.
Where [8] appears, read: average of 11 animals, Day 5, 30 mg/kg twice daily.

Where “and” joins values, the source holds several entries; their conditions need not be identical. Equal entries are not always repeated.

In the case of `CN(CC(=O)O)C(=N)N` [creatine], the “Seizure # Between 13:00:00 to 15:00:00” value in assay [1] (Day 2, 30 mg/kg) was 2 and 17 (2×) and 14 and 7 and 31 and 25 and 16 and 20 and 4 and 15. Besides, in assay [1] (setting [5]), the “% Seizure # Reduction, Day #2 Post Creatine/Control” value is 28.57% and 91.30% and 63.04% and 56.25% and 12.50% and 27.91% and 30.56% and 44.83% and 25.93% and 69.23% and 26.09%; the “% Total Seizure Time Reduction, Day #2 Post Creatine/Control” value was 63.25% and 80.95% and 92.74% and 82.31% and 52.13% and 40.86% and 76.08% and 73.42% and 89.95% and 85.75% and 74.05%. Moreover, in assay [1] (Day 5, 30 mg/kg), the “Seizure # Between 13:00:00 to 15:00:00” value is 5 (2×) and 21 and 18 and 4 and 26 and 23 and 13 and 16 and 10 and 15. In assay [1] (setting [6]), the “% Seizure # Reduction, Day #5 Post Creatine/Control” value was 76.19% and 78.26% and 54.35% and 43.75% and 50.00% and 39.53% and 36.11% and 55.17% and 40.74% and 23.08% and 34.78%; the “% Total Seizure Time Reduction, Day #5 Post Creatine/Control” value was 86.37% and 70.56% and 58.23% and 70.52% and 46.23% and 35.72% and 80.58% and 85.99% and 92.36% and 36.75% and 74.61%. In assay [1] (setting [7]), the “% Seizure # Reduction, Day #2 Post Creatine/Control, Average” value is given as 43.29% and the “% Total Seizure Time Reduction, Day #2 Post Creatine/Control, Average” value came out at 73.77%. In addition, in assay [1] (setting [8]), the “% Seizure # Reduction, Day #5 Post Creatine/Control, Average” value amounted to 48.36% and the “% Total Seizure Time Reduction, Day #5 Post Creatine/Control, Average” value is on record as 67.08%. In addition, in assay [1] (epileptic rodent model), the “reduction in duration of epileptic seizure events” value is “greater than 70%” and the “reduction in frequency of epileptic seizure events” value is “greater than 70%”. In assay [2], the “duration of effect of a single dose compared to current antiepileptic drugs” value is given as “last much longer than conventional antiepileptic drugs”. Moreover, in assay [3], the “effect on the GABAA receptor positive allosteric modulator effect of alcohol (ethanol)” value was “preventing or significantly diminishing”. Besides, the “mode of action on extra-synaptic GABAA receptors” value in assay [4] is recorded as “partial negative allosteric modulator”.
For `NC1=NCCN1CC(=O)O` [cyclocreatine], the “therapeutic effect compared with creatine” value in assay [1] (atypical absence epilepsy rodent models) was “does not confer the same therapeutic effect as creatine”.
In the case of `CN(CC(=O)O)C(=N)NP(=O)(O)O` [phosphocreatine], the “effect on the GABAA receptor positive allosteric modulator effect of alcohol (ethanol)” value in assay [3] is “preventing or significantly diminishing”. For the same molecule, the “effect on expression cells compared with creatine” value in assay [4] (expression cells) is listed as “same effect as creatine”.
